Results as given in ChEMBL document CHEMBL1201862, “PubChem BioAssay data set” (2004).
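Briefly, cells in 96-well plates were exposed to five compound concentrations for 48 h, and endpoints were estimated by linear interpolation. GI50 = concentration required for 50% inhibition of growth.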 Activity calls are given as the source filed them. No stated cut-off is given here; in the data, active = GI50 up to about 1.1 µM and inactive = higher.

Tests used:
Experiment in all cases: NCI tumour cell line growth inhibition, 48 h
SNB-19 = tested on: SNB-19
OVCAR-4 = tested on: OVCAR-4
U-251 = tested on: U-251
UACC-257 = tested on: UACC-257
SW-620 = tested on: SW-620
K562 = tested on: K562
Malme-3M = tested on: Malme-3M
HOP-92 = tested on: HOP-92
SK-MEL-2 = tested on: SK-MEL-2
M14 = tested on: M14
NCI-H522 = tested on: NCI-H522
HL-60 = tested on: HL-60
NCI-H226 = tested on: NCI-H226
NCI/ADR-RES = tested on: NCI/ADR-RES
MCF7 = tested on: MCF7
SK-OV-3 = tested on: SK-OV-3
MDA-N = tested on: MDA-N
MDA-MB-435 = tested on: MDA-MB-435
CCRF-CEM = tested on: CCRF-CEM
COLO 205 = tested on: COLO 205
IGROV-1 = tested on: IGROV-1
LOX IMVI = tested on: LOX IMVI
MDA-MB-231 = tested on: MDA-MB-231
EKVX = tested on: EKVX
SF-268 = tested on: SF-268
OVCAR-3 = tested on: OVCAR-3
A498 = tested on: A498
BT-549 = tested on: BT-549
A549 = tested on: A549
HT-29 = tested on: HT-29
KM12 = tested on: KM12
Hs-578T = tested on: Hs-578T
786-0 = tested on: 786-0
SNB-75 = tested on: SNB-75
PC-3 = tested on: PC-3
UACC-62 = tested on: UACC-62
SF-295 = tested on: SF-295
OVCAR-5 = tested on: OVCAR-5
ACHN = tested on: ACHN
HOP-62 = tested on: HOP-62
NCI-H460 = tested on: NCI-H460
HCT-15 = tested on: HCT-15
SN12C = tested on: SN12C
T47D = tested on: T47D
OVCAR-8 = tested on: OVCAR-8
HCC 2998 = tested on: HCC 2998
UO-31 = tested on: UO-31
NCI-H23 = tested on: NCI-H23
HCT-116 = tested on: HCT-116
SK-MEL-28 = tested on: SK-MEL-28
MOLT-4 = tested on: MOLT-4
SR = tested on: SR
TK-10 = tested on: TK-10
SF-539 = tested on: SF-539
DU-145 = tested on: DU-145
RXF 393 = tested on: RXF 393
SK-MEL-5 = tested on: SK-MEL-5
CAKI-1 = tested on: CAKI-1
RPMI-8226 = tested on: RPMI-8226

## COCCOCCOCCOc1ccc(C(C#N)N(CCc2ccccc2)C(=O)c2cc(C(=O)N(CCc3ccccc3)C(C#N)c3ccc(OCCOCCOCCOC)cc3)cc(C(=O)N(CCc3ccccc3)C(C#N)c3ccc(OCCOCCOCCOC)cc3)c2)cc1 (stereo not given)
SNB-19
  GI50: > 100 µM (inactive)
OVCAR-4
  GI50: > 100 µM (inactive)
U-251
  GI50: > 100 µM (inactive)
UACC-257
  GI50: > 100 µM (inactive)
SW-620
  GI50: > 100 µM (inactive)
K562
  GI50: > 100 µM (inactive)
Malme-3M
  GI50: > 100 µM (inactive)
HOP-92
  GI50: 85.7 µM (inactive)
SK-MEL-2
  GI50: > 100 µM (inactive)
M14
  GI50: > 100 µM (inactive)
NCI-H522
  GI50: > 100 µM (inactive)
HL-60
  GI50: > 100 µM (inactive)
NCI-H226
  GI50: > 100 µM (inactive)
NCI/ADR-RES
  GI50: > 100 µM (inactive)
MCF7
  GI50: > 100 µM (inactive)
SK-OV-3
  GI50: > 100 µM (inactive)
MDA-N
  GI50: > 100 µM (inactive)
MDA-MB-435
  GI50: > 100 µM (inactive)
CCRF-CEM
  GI50: > 100 µM (inactive)
COLO 205
  GI50: > 100 µM (inactive)
IGROV-1
  GI50: > 100 µM (inactive)
LOX IMVI
  GI50: > 100 µM (inactive)
MDA-MB-231
  GI50: > 100 µM (inactive)
EKVX
  GI50: > 100 µM (inactive)
SF-268
  GI50: > 100 µM (inactive)
OVCAR-3
  GI50: > 100 µM (inactive)
A498
  GI50: > 100 µM (inactive)
BT-549
  GI50: > 100 µM (inactive)
A549
  GI50: > 100 µM (inactive)
HT-29
  GI50: > 100 µM (inactive)
KM12
  GI50: > 100 µM (inactive)
Hs-578T
  GI50: 54.3 µM (inactive)
786-0
  GI50: > 100 µM (inactive)
SNB-75
  GI50: > 100 µM (inactive)
PC-3
  GI50: > 100 µM (inactive)
UACC-62
  GI50: > 100 µM (inactive)
SF-295
  GI50: > 100 µM (inactive)
OVCAR-5
  GI50: > 100 µM (inactive)
ACHN
  GI50: > 100 µM (inactive)
HOP-62
  GI50: > 100 µM (inactive)
NCI-H460
  GI50: > 100 µM (inactive)
HCT-15
  GI50: > 100 µM
SN12C
  GI50: > 100 µM (inactive)
T47D
  GI50: > 100 µM (inactive)
OVCAR-8
  GI50: > 100 µM (inactive)
HCC 2998
  GI50: > 100 µM (inactive)
UO-31
  GI50: > 100 µM (inactive)
NCI-H23
  GI50: > 100 µM (inactive)
HCT-116
  GI50: > 100 µM (inactive)
SK-MEL-28
  GI50: > 100 µM (inactive)
MOLT-4
  GI50: > 100 µM (inactive)
SR
  GI50: > 100 µM (inactive)
TK-10
  GI50: > 100 µM (inactive)
SF-539
  GI50: > 100 µM (inactive)
DU-145
  GI50: > 100 µM (inactive)
RXF 393
  GI50: > 100 µM (inactive)
SK-MEL-5
  GI50: > 100 µM (inactive)

## CC(C)=CCC(O)C1=CC(=O)c2c(O)ccc(O)c2C1=O (stereo not given)
SNB-19
  GI50: 2.36 µM (inactive)
OVCAR-4
  GI50: 1.76 µM (inactive)
U-251
  GI50: 2.1 µM (inactive)
UACC-257
  GI50: 1.5 µM (inactive)
SW-620
  GI50: 0.933 µM (active)
K562
  GI50: 0.191 µM (active)
HOP-92
  GI50: 0.641 µM (active)
SK-MEL-2
  GI50: 1.95 µM (inactive)
M14
  GI50: 1.16 µM (inactive)
NCI-H522
  GI50: 0.258 µM (active)
HL-60
  GI50: 0.0349 µM (active)
NCI-H226
  GI50: 1.01 µM (active)
NCI/ADR-RES
  GI50: 2.05 µM (inactive)
MCF7
  GI50: 0.557 µM (active)
SK-OV-3
  GI50: 11.7 µM (inactive)
MDA-N
  GI50: 0.805 µM (active)
MDA-MB-435
  GI50: 1.31 µM (inactive)
CCRF-CEM
  GI50: 0.075 µM (active)
COLO 205
  GI50: 0.171 µM (active)
IGROV-1
  GI50: 1.64 µM (inactive)
LOX IMVI
  GI50: 1.22 µM (inactive)
CAKI-1
  GI50: 0.407 µM (active)
MDA-MB-231
  GI50: 1.55 µM (inactive)
EKVX
  GI50: 1.54 µM (inactive)
SF-268
  GI50: 2.27 µM (inactive)
OVCAR-3
  GI50: 1.14 µM (inactive)
A498
  GI50: 1.96 µM (inactive)
BT-549
  GI50: 1.58 µM (inactive)
A549
  GI50: 4.82 µM (inactive)
HT-29
  GI50: 1.97 µM (inactive)
KM12
  GI50: 4.7 µM (inactive)
Hs-578T
  GI50: 2.9 µM (inactive)
786-0
  GI50: 0.494 µM (active)
SNB-75
  GI50: 5.04 µM (inactive)
PC-3
  GI50: 2.23 µM (inactive)
UACC-62
  GI50: 1.58 µM (inactive)
SF-295
  GI50: 2.78 µM (inactive)
OVCAR-5
  GI50: 1.97 µM (inactive)
RPMI-8226
  GI50: 0.23 µM (active)
ACHN
  GI50: 0.525 µM (active)
HOP-62
  GI50: 1.82 µM (inactive)
NCI-H460
  GI50: 1.88 µM (inactive)
HCT-15
  GI50: 0.21 µM
SN12C
  GI50: 0.664 µM (active)
T47D
  GI50: 0.39 µM (active)
OVCAR-8
  GI50: 1.55 µM (inactive)
HCC 2998
  GI50: 1.74 µM (inactive)
UO-31
  GI50: 1.38 µM (inactive)
NCI-H23
  GI50: 1.13 µM (inactive)
HCT-116
  GI50: 1.25 µM (inactive)
SK-MEL-28
  GI50: 1.48 µM (inactive)
MOLT-4
  GI50: 0.063 µM (active)
SR
  GI50: 0.15 µM (active)
TK-10
  GI50: 1.53 µM (inactive)
SF-539
  GI50: 1.61 µM (inactive)
DU-145
  GI50: 1.22 µM (inactive)
RXF 393
  GI50: 0.745 µM (active)
SK-MEL-5
  GI50: 0.301 µM (active)
